Tests used:
MgrA [1] = target: T1, MgrA (Staphylococcus aureus, UniProt P0C1S0); assay: thermal shift assay (Sypro Orange); assay type: binding; details: Tm is lowered by the compound; MgrA to Mo-A 1:10 molar ratio, 10 mM Tris, 150 mM NaCl, pH 7.5
T1 construct: homodimer in nature

MgrA [2] = target: T1, MgrA; assay: fluorescence anisotropy, inhibition of MgrA binding to DNA probe; assay type: biochemical
MgrA [3] = target: T1, MgrA; assay: intrinsic fluorescence quenching (ex […] nm), Stern-Volmer, linear regression; assay type: binding; details: PBS, MgrA 2 nM; static quenching

T1 sequence (P0C1S0 2-147): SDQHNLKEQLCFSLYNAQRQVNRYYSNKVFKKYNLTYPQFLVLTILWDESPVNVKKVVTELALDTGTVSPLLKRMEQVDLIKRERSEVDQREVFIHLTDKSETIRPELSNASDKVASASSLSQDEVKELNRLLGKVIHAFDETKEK

**Q.** Which results are given for `Cc1c(O)c(C)c2c(c1O)C(=O)[C@H](Cc1ccc3c(c1)OCO3)CO2` [methylophiopogonanone A]?
**A.** ∆Tm (decrease) (MgrA [1]): > 3 °C; IC50 (MgrA [2]): 95.9 µM; KA (MgrA [3]): 62500 L/mol
